# Test system: cGMP PDE5
# Test: In vitro PDE inhibitory activity against cGMP PDE5 (IC50)
# Assay type: biochemical
# Settings: table of Examples, read-out: IC50 (in vitro activities as inhibitors of cGMP PDE5)
# Experimental: In vitro PDE inhibitory activities against cyclic guanosine 3', 5'-monophosphate (cGMP) and cyclic adenosine 3',5'-monophosphate (cAMP) phosphodiesterases were determined by measurement of their IC50 values (the concentration of compound required for 50% inhibition of enzyme activity).
# The required PDE enzymes were isolated from a variety of sources, including human corpus cavernosum, human and rabbit platelets, human cardiac ventricle, human skeletal muscle and bovine retina, essentially by the method of W. J. Thompson and M. M. Appleman (Biochem., 1971, 10, 311). In particular, the cGMP-specific PDE (PDE5) and the cGMP-inhibited cAMP PDE (PDE3) were obtained from human corpus cavernosum tissue, human platelets or rabbit platelets; the cGMP-stimulated PDE (PDE2) was obtained from human corpus cavernosum; the calcium/calmodulin (Ca/CAM)-dependent PDE (PDE1) from human cardiac ventricle; the cAMP-specific PDE (PDE4) from human skeletal is muscle; and the photoreceptor PDE (PDE6) from bovine retina.
# Assays were performed using a modification of the "batch" method of W. J. Thompson et al. (Biochem., 1979, 18, 5228).
row,SMILES,IC50
1,CCCOc1ccc(S(=O)(=O)N2CCN(CCO)CC2)cc1-c1nc2c(C(N)=O)nn(Cc3ccccn3)c2c(=O)[nH]1 [Example 5],2.8 nM
2,CCCOc1ccc(S(=O)(=O)N2CCN(C)CC2)cc1-c1nc2c(C(=O)NC)nn(Cc3cccnc3)c2c(=O)[nH]1 [Example 8],4.1 nM
3,"CCOc1ccc(S(=O)(=O)N2CCN(C)CC2)cc1-c1nc2c(C(=O)NC)nn(Cc3ccccc3)c2c(=O)[nH]1 [Example 19, 1-Benzyl-5-[2-ethoxy-5-(4-methylpiperazin-1-ylsulphonyl)]-7-oxo-1,6-dihydro-1H-pyrazolo[4,3-d]pyrimidine-3-N-methylcarboxamide]",3.4 nM
4,"CCN1CCN(S(=O)(=O)c2cnc(OCCOC)c(-c3nc4c(C(N)=O)nn(Cc5ccccn5)c4c(=O)[nH]3)c2)CC1 [Example 33, 5-[5-(4-Ethylpiperazin-1-ylsulphonyl)-2-(2-methoxyethoxy)pyridin-3-yl]-7-oxo-1-(pyridin-2-yl)methyl-1,6-dihydro-1H-pyrazolo[4,3-d]pyrimidine-3-carboxamide]",2.8 nM
5,CCOc1ncc(S(=O)(=O)N2CCN(CC)CC2)cc1-c1nc2c(-c3cccnc3)n(Cc3ncccn3)nc2c(=O)[nH]1 [Example 42],2.26 nM

# Reference: patent US6333330A, “Pyrazolopyrimidinone CGMP PDE5 inhibitors for the treatment of sexual dysfunction” (Pfizer Inc., priority 1998, dated 2001)
